The source of these data is USRE47193E1, “Selectively substituted quinoline compounds” (EISAI R&D MANAGEMENT CO., LTD., priority 2013, dated 2019).

Where two headings read alike, the source gives them in different places.

For experiment [1], the target named is T1, human TLR8 (Homo sapiens, UniProt Q9NR97).
T1 construct: host or cells: HEK-293, then stably transfected with pNiFty2(NF-kappaB)-luciferase reporter
T1 sequence (Q9NR97 27-1041): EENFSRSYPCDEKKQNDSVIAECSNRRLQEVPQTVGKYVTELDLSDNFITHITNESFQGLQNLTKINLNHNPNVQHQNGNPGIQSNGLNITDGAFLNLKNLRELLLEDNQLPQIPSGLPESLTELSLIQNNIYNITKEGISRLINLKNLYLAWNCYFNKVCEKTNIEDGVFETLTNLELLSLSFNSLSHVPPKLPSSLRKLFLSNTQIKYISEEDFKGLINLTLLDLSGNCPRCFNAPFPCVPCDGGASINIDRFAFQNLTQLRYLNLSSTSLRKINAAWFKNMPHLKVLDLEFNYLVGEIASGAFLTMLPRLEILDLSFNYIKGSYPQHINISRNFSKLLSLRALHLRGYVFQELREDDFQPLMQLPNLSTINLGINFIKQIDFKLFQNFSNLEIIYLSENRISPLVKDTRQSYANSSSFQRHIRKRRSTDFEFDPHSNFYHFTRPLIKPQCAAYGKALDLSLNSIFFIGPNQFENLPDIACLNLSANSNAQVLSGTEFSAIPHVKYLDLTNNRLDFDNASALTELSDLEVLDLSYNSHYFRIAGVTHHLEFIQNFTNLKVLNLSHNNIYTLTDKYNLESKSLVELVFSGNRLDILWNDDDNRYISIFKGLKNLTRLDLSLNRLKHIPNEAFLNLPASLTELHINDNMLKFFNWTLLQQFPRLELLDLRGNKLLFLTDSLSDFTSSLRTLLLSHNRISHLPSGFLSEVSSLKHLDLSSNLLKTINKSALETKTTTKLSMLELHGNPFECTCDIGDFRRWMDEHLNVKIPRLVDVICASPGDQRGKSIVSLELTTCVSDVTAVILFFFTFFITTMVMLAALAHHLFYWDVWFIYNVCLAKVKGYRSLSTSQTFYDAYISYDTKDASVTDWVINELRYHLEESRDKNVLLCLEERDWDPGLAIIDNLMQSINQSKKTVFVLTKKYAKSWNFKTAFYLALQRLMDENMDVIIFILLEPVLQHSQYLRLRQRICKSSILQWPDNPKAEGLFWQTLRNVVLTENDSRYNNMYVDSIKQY
In words: HEK-293 human TLR8 NF-kappaB luciferase reporter assay (CL097). Format: cell-based. On the procedure: Effects on mouse TLR7 were also compared. Cells were stimulated overnight with TLR7/8 agonist CL097 at pre-determined ED70-80: 3 ug/ml for HEK-hTLR7, 1.5 ug/ml for HEK-mTLR7 and 12 ug/ml for HEK-hTLR8, before reading luminescence intensity. Three tests were performed and IC50 value was determined using Graphpad Prism 6 nonlinear regression curve fit.
HEK-293 cells (ATCC) were engineered to stably express a NF-kappaB transcription factor inducible E-selectin (ELAM-1) luciferase reporter derived from the plasmid pGL3 (Promega) containing base pairs −2241 bp to −254 bp from the promoter of the human E-selectin gene (Accession No. NM_000450). These cells were then subsequently engineered to stably and individually express human TLR4, TLR7 or TLR9 full-length ORF cDNAs. Human TLR4 cDNA (Accession No. NM_138554) was cloned into pcDNA 3.0 expression vector (Invitrogen). TLR4 transfected cells were also engineered to express human MD-2 co-receptor [MD-2 cDNA (Accession No. NM_015364) was cloned into the pEF-BOS vector] and were supplemented with 10 nM soluble CD14 (R&D Systems) in the media to optimize LPS responsiveness. Human TLR9 cDNA (Accession No. NM_017442) was cloned into the pBluescript II KS vector (Agilent). Human TLR7 cDNA (Accession No. NM_016562) was obtained from OriGene. HEK-293 cells stably expressing human TLR8 (Accession No. NM_138636) or mouse TLR7 (Accession No. NM_133211) were purchased from InvivoGen and were then stably transfected with pNiFty2(NF-kappaB)-luciferase reporter plasmid (InvivoGen). Each cell type was plated in Dulbecco's modified Eagle's medium (DMEM) containing 10% fetal bovine serum (FBS) at a density of 2.22×10^5 cells/ml into a 384-well plate and incubated for 2 days at 37° C., 5% CO2. Varying concentrations of antagonist compounds were then added. Cells were then incubated for another 30 minutes before adding the appropriate TLR agonist as follows (final concentrations indicated): lipopolysaccharide (LPS; Sigma) at 10 ng/ml for TLR4, CL097 (InvivoGen) at 3 ug/ml for human TLR7 and TLR8 and mouse TLR7, and CvG-2006-2A [sequence: […] (SEQ ID NO: 1) with phosphorothioate backbone, synthesized by Sigma-Aldrich] at 0.6 uM for TLR9.
Background: A reporter such as luciferase makes a cellular process visible.

Experiment [2] concerns Human TLR7/8. In words: Human PBMC cell-based assay, TLR7/8 stimulus (RNA-Ig), cytokine ELISA. The following applies: primary human PBMC assay, TLR7/8 potency; ligand not given; read-out: Human PBMCs IC50. The method in brief: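 The agonist was RNA-Ig, a U1 snRNA-derived 26-mer RNA (2.5 μM) complexed with RNA-cross-reacting anti-ssDNA mAb (1:25 or 1 ug/ml), added after 30 min compound pre-incubation (0.1% DMSO). Density-gradient PBMC from healthy donors, 2×10^5/well, were stimulated 20 h at 37 °C; cytokines quantified by ELISA.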

Setting [3] is: HEK-293 assay format, read-out: HEK/hTLR8 IC50.

Take `CC1CN(c2ccc(C#N)c3ncccc23)CC(CN2CCCC2C(C)C)O1` (mixture of isomers) [ER-886816]: the IC50 in experiment [1] (setting [3]) came out at 107 nM.
Regarding `CC1CN(c2ccc(C#N)c3ncccc23)CC(CNC2CCCC2O)O1` (mixture of isomers) [ER-887528], the IC50 worked out at 135 nM in experiment [1] (setting [3]) and 56 nM in experiment [2].
Regarding `C=CC(O)[C@H]1CN(c2ccc(C#N)c3ncccc23)C[C@@H](C)O1` (single isomer, unassigned) [ER-886431], in experiment [1] (setting [3]), the IC50 was 31 nM.
Still for that read-out and setting: for `CCCCC(O)C1CN(c2ccc(C#N)c3ncccc23)CC(C)O1` (single isomer, unassigned) [ER-886530] the value was 5 nM; for `CC1CN(c2ccc(C#N)c3ncccc23)CC(C(O)C2CCCCC2)O1` (single isomer, unassigned) [ER-886532], 30 nM.
Still for that read-out and setting: the same measure for `CC1CN(c2ccc(C#N)c3ncccc23)CC(C(O)C2CCCCC2)O1` (single isomer, unassigned) [ER-886533]: 14 nM.
`CC1CN(c2ccc(C#N)c3ncccc23)CC(C(O)CCc2ccccc2)O1` (single isomer, unassigned) [ER-886567]: the IC50 was found to be 5 nM in experiment [1] (setting [3]) and 22 nM in experiment [2].
On the same counts, the results for `CC1CN(c2ccc(C#N)c3ncccc23)CC(C(O)CCc2ccccc2)O1` (single isomer, unassigned) [ER-886568] are 5 nM and 79 nM.
Take `N#Cc1ccc(N2CCOC(CCl)C2)c2cccnc12` (stereo not shown) [ER-879484]: the IC50 in experiment [1] (setting [3]) was 18 nM.
On to `C[C@@H]1CN(c2ccc(C#N)c3ncccc23)C[C@H](CNC(=O)C(C)(C)C)O1` [ER-879713], for which the IC50 in experiment [1] (setting [3]) came to 80 nM.
For the compound `C[C@H]1CN(c2ccc(C#N)c3ncccc23)C[C@H](C)O1` [ER-880191], the IC50 in experiment [1] (setting [3]) was determined as 10 nM.
On the same count and under the same terms, the same measure for `COc1ccc(N2C[C@@H](C)O[C@@H](C)C2)c2cccnc12` [ER-885113]: 11 nM.
Consider `COC[C@H]1CN(c2ccc(C#N)c3ncccc23)C[C@@H](C)O1` [ER-885612], for which the IC50 in experiment [1] (setting [3]) turned out to be 55 nM; in experiment [2] it was 614 nM.
On the same counts, the results for `C[C@@H]1CN(c2ccc(C#N)c3ncccc23)C[C@H](COCc2ccccc2)O1` [ER-885618, 5-((2R,6R)-2-((benzyloxy)methyl)-6-methylmorpholino)quinoline-8-carbonitrile] are 5 nM and 23 nM.
On to `C[C@@H]1CN(c2ccc(C#N)c3ncccc23)C[C@H](CF)O1` [ER-885621], for which the IC50 in experiment [1] (setting [3]) came to 25 nM.
In the case of `CC(C)COC[C@H]1CN(c2ccc(C#N)c3ncccc23)C[C@@H](C)O1` [ER-885892], the IC50 in experiment [1] (setting [3]) stood at 37 nM.
As to `C[C@@H]1CN(c2ccc(C#N)c3ncccc23)C[C@H](CCl)O1` [ER-885906], the results for the IC50 in experiment [1] (setting [3]) and in experiment [2] were 20 nM and 33 nM, respectively.
With `C[C@@H]1CN(c2ccc(C#N)c3ncccc23)C[C@H](COCC2CCCCC2)O1` [ER-885930], in experiment [1] (setting [3]), the IC50 is 147 nM.
For the compound `CC[C@@H]1CN(c2ccc(C#N)c3ncccc23)C[C@H](COCc2ccccc2)O1` [ER-886355], the results for the IC50 in experiment [1] (setting [3]) and in experiment [2] were 66 nM and 177 nM, respectively.
As for `C[C@@H]1CN(c2ccc(C#N)c3ncccc23)C[C@H](CN2CCCC2)O1` [ER-886507], the IC50 in experiment [1] (setting [3]) was 182 nM.
The same measure, in the same setting: for `CCN(CC)C[C@H]1CN(c2ccc(C#N)c3ncccc23)C[C@@H](C)O1` [ER-886508] the value was 186 nM.
As to `C[C@@H]1CN(c2ccc(C#N)c3ncccc23)C[C@H](CNCc2ccccc2)O1` [ER-886509], in experiment [1] (HEK/hTLR8 IC50, HEK-293 assay format), the IC50 was found to be 119 nM.
`C[C@@H]1CN(c2ccc(C#N)c3ncccc23)C[C@H](COc2ccccc2)O1` [ER-886514]: the IC50 in experiment [1] (setting [3]) amounted to 5 nM.
As for `C[C@@H]1CN(c2ccc(C#N)c3ncccc23)C[C@H](COc2ccccc2F)O1` [ER-886624], the IC50 in experiment [1] (setting [3]) stood at 86 nM; in experiment [2], 23 nM.
On the same counts, the results for `CCC(=O)[C@H]1CN(c2ccc(C#N)c3ncccc23)C[C@@H](C)O1` [ER-886625] are 10 nM and 91 nM.
In the same order, the values of `C[C@@H]1CN(c2ccc(C#N)c3ncccc23)C[C@H](C(=O)C2CCCCC2)O1` [ER-886626] are 5 nM and 80 nM.
Take `C[C@@H]1CN(c2ccc(C#N)c3ncccc23)C[C@H](C(=O)CCc2ccccc2)O1` [ER-886629]: the IC50 in experiment [1] (setting [3]) is 5 nM.
Still for that read-out and setting: the same measure for `C[C@@H]1CN(c2ccc(C#N)c3ncccc23)C[C@H](CN2CC[C@@H](c3ccccc3)C2)O1` [ER-886818]: 81 nM.
In the case of `C[C@@H]1CN(c2ccc(C#N)c3ncccc23)C[C@H](CN2CCC(c3ccccc3)C2)O1` (stereo partly shown) [ER-886854], the IC50 in experiment [1] (setting [3]) was 46 nM; in experiment [2], 20 nM.
In the same order, the values of `CC1CCC(C)N1C[C@H]1CN(c2ccc(C#N)c3ncccc23)C[C@@H](C)O1` (stereo partly shown) [ER-886857] are 72 nM and 98 nM.
On the same counts, the results for `COc1ccnc(NC[C@H]2CN(c3ccc(C#N)c4ncccc34)C[C@@H](C)O2)c1` [ER-886858] are 2 nM and 15 nM.
In the same order, the values of `C[C@@H]1CN(c2ccc(C#N)c3ncccc23)C[C@H](CN2CCC(C)(C)C2)O1` [ER-886869] are 161 nM and 112 nM.
In the case of `C[C@@H]1CN(c2ccc(C#N)c3ncccc23)C[C@H](CN2CCC[C@@H](O)C2)O1` [ER-886949], the IC50 in experiment [1] (setting [3]) was determined as 78 nM; in experiment [2], 32 nM.
In the same order, the values of `C[C@@H]1CN(c2ccc(C#N)c3ncccc23)C[C@H](CN2CCCCC2CO)O1` (stereo partly shown) [ER-886955] are 83 nM and 129 nM.
In the same order, the values of `C[C@@H]1CN(c2ccc(C#N)c3ncccc23)C[C@H](CNc2cccnc2)O1` [ER-887138] are 13 nM and 4 nM.
Turning to `C[C@@H]1CN(c2ccc(C#N)c3ncccc23)C[C@H](CN2CCC(F)(F)CC2)O1` [ER-887142], the IC50 in experiment [1] (setting [3]) was determined as 115 nM; in experiment [2], 147 nM.
`C[C@@H]1CN(c2ccc(C#N)c3ncccc23)C[C@H](CN2CCC(c3ccccc3)CC2)O1` [ER-887143]: the IC50 was determined as 148 nM in experiment [1] (setting [3]) and 13 nM in experiment [2].
On the same counts, the results for `CC1CN(c2ccc(C#N)c3ncccc23)CC(CN2CCC(F)CC2)O1` (stereo not shown) [ER-887144] are 48 nM and 63 nM.
`C[C@@H]1CN(c2ccc(C#N)c3ncccc23)C[C@H](CNC2CCCCCC2)O1` [ER-887444]: the IC50 in experiment [1] (setting [3]) amounted to 193 nM.
`CC1CCCCC1NC[C@H]1CN(c2ccc(C#N)c3ncccc23)C[C@@H](C)O1` (stereo partly shown) [ER-887539]: the IC50 in experiment [1] (setting [3]) turned out to be 0.5 nM.
As to `C[C@@H]1CN(c2ccc(C#N)c3ncccc23)C[C@H](CN2CCC[C@@H](N)C2)O1` [ER-887928], the IC50 in experiment [1] (setting [3]) came out at 11 nM.
